Results from US20090005363A1, “Organic Compounds” (priority 2005, published 2009).

Biological target: mGluR5 (Homo sapiens, UniProt P41594)
Assay: inhibition of the glutamate induced elevation of intracellular Ca2+ concentration
Details: read-out: mGluR5 Activity inh. at 10 μM [%]
Text: This can be determined in vitro for example at recombinant human metabotropic glutamate receptors, especially PLC-coupled subtypes thereof such as mGluR5, using different procedures like, for example, measurement of the inhibition of the agonist induced elevation of intracellular Ca^2+ concentration in accordance with L. P. Daggett et al., Neuropharm.

mGluR5, sequence (P41594 21-1180 isoform P41594-2 limits assumed): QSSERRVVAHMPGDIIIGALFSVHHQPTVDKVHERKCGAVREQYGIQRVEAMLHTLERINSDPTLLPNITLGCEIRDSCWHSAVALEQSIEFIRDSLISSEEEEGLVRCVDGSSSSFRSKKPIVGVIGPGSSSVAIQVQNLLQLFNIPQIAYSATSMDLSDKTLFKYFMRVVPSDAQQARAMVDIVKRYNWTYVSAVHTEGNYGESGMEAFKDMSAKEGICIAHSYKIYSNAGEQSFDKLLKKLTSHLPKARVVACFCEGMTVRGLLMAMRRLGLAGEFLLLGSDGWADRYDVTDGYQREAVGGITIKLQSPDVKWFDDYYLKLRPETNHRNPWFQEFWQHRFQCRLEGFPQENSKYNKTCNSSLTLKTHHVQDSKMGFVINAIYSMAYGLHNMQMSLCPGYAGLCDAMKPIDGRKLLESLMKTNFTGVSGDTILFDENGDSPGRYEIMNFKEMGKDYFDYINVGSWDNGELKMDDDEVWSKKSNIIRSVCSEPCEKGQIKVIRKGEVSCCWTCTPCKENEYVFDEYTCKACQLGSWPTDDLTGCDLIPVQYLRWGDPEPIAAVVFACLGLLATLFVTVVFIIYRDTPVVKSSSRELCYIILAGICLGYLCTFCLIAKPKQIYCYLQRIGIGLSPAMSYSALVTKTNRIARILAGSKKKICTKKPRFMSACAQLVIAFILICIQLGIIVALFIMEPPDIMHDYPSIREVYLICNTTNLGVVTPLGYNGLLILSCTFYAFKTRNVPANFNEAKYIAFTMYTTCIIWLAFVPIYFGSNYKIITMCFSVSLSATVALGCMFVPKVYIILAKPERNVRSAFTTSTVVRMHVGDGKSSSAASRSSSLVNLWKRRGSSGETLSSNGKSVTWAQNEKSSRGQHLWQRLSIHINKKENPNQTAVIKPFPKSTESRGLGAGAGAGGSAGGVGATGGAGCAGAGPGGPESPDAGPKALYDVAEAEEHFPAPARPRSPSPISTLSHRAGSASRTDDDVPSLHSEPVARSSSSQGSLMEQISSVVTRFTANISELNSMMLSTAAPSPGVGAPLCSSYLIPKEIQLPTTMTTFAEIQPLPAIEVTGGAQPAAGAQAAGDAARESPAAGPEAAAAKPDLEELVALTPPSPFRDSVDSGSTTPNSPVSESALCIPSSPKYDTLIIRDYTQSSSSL

Compound | inhibition at 10 µM [%]
CC1CCCN(C(=O)c2cnc(Nc3ccc(Cl)nc3)c(Cl)c2)C1 (stereo not shown) [Compound 7.1, [5-Chloro-6-(6-chloro-pyridin-3-ylamino)-pyridin-3-yl]-(3-methyl-piperidin-1-yl)-methanone] | 98
O=C(c1ccc(Nc2ccc(Cl)cc2)nn1)N1CCCCC1 [Compound 8.1, [6-(4-Chloro-phenylamino)-pyridazin-3-yl]-piperidin-1-yl-methanone] | 91
CC1(C)CCCN(C(=O)c2ccc(Nc3ccc(Cl)cc3)nn2)C1 [Compound 8.3, [6-(4-Chloro-phenylamino)-pyridazin-3-yl]-(3,3-dimethyl-piperidin-1-yl)-methanone] | 82
O=C(c1ccc(Nc2ccc(Cl)cc2)nn1)N1CCc2ccccc2C1 [Compound 8.4, [6-(4-Chloro-phenylamino)-pyridazin-3-yl]-(3,4-dihydro-1H-isoquinolin-2-yl)-methanone] | 89
CC1CCN(C(=O)c2ccc(Nc3ccc(Cl)cc3)nn2)CC1 [Compound 8.5, [6-(4-Chloro-phenylamino)-pyridazin-3-yl]-(4-methyl-piperidin-1-yl)-methanone] | 86

Next, values leading:

inhibition at 10 µM [%] | Compound
97 | Cc1ccc(Nc2ncc(C(=O)N3CCCCC3)cc2C)cn1 [Compound 9.1, [5-Methyl-6-(6-methyl-pyridin-3-ylamino)-pyridin-3-yl]-piperidin-1-yl-methanone]
99 | Cc1ccc(Nc2ncc(C(=O)N3CCCCC3)cc2F)cn1 [Compound 9.2, [5-Fluoro-6-(6-methyl-pyridin-3-ylamino)-pyridin-3-yl]-piperidin-1-yl-methanone]
